For 1 compound, RatioLC50 and LC50 results are on record in ChEMBL document CHEMBL3046676, “Baseline susceptibility of Bemisia tabaci (Genn.) biotype B in southern Florida to cyantraniliprole” (2013).

Common to all, as to type: functional
Test [1] deals with Bemisia tabaci. Nature of the test: Resistance ratio of LC50 for field-collected population of Bemisia tabaci (sweet potato whitefly) biotype B GCC-AM ST (F4-5) adults to LC50 for laboratory strain of Bemisia tabaci (sweet potato whitefly) biotype B adults.
Test [2] concerns Bemisia tabaci. Nature of the test: Resistance ratio of LC50 for field-collected population of Bemisia tabaci (sweet potato whitefly) biotype B GCC-AM (p) (F2) adults to LC50 for laboratory strain of Bemisia tabaci (sweet potato whitefly) biotype B adults.
In test [3] the test system is Bemisia tabaci. Nature of the test: Resistance ratio of LC50 for field-collected population of Bemisia tabaci (sweet potato whitefly) biotype B Cortez #1 (F4) adults to LC50 for laboratory strain of Bemisia tabaci (sweet potato whitefly) biotype B adults.
The test system of test [4] is Bemisia tabaci. The test is described as follows: Insecticidal activity against laboratory strain of Bemisia tabaci (sweet potato whitefly) biotype B adults infested in cotton seedlings cut stem assessed as mortality measured after 5 days by stabilization treatment based systemic uptake bioassay.
For test [5], the system named is Bemisia tabaci. Nature of the test: Insecticidal activity against field-collected population of Bemisia tabaci (sweet potato whitefly) biotype B GCC-AM ST (F4-5) adults infested in cotton seedlings cut stem assessed as mortality measured after 5 days by stabilization treatment based systemic uptake bioassay.
The test system of test [6] is Bemisia tabaci. The test is described as follows: Insecticidal activity against field-collected population of Bemisia tabaci (sweet potato whitefly) biotype B GCC-AM (p) (F2) adults infested in cotton seedlings cut stem assessed as mortality measured after 5 days by stabilization treatment based systemic uptake bioassay.
For test [7], the system named is Bemisia tabaci. Nature of the test: Insecticidal activity against field-collected population of Bemisia tabaci (sweet potato whitefly) biotype B Cortez #1 (F4) adults infested in cotton seedlings cut stem assessed as mortality measured after 5 days by stabilization treatment based systemic uptake bioassay.
In test [8] the test system is Bemisia tabaci. The test is described as follows: Insecticidal activity against field-collected population of Bemisia tabaci (sweet potato whitefly) biotype B Devil's garden KAC (F3) eggs in cotton seedlings cut stem assessed as mortality measured after 14 days by stabilization treatment based systemic uptake bioassay.
The test system of test [9] is Bemisia tabaci. Nature of the test: Insecticidal activity against field-collected population of Bemisia tabaci (sweet potato whitefly) biotype B Homestead #1 (F4) eggs in cotton seedlings cut stem assessed as mortality measured after 14 days by stabilization treatment based systemic uptake bioassay.
The test system of test [10] is Bemisia tabaci. Nature of the test: Insecticidal activity against field-collected population of Bemisia tabaci (sweet potato whitefly) biotype B GCC-EV-Tom (F4) eggs in cotton seedlings cut stem assessed as mortality measured after 14 days by stabilization treatment based systemic uptake bioassay.
Test [11] relates to Bemisia tabaci. The test is described as follows: Insecticidal activity against field-collected population of Bemisia tabaci (sweet potato whitefly) biotype B Parrish (F3) eggs in cotton seedlings cut stem assessed as mortality measured after 14 days by stabilization treatment based systemic uptake bioassay.
Test [12] concerns Bemisia tabaci. Nature of the test: Insecticidal activity against field-collected population of Bemisia tabaci (sweet potato whitefly) biotype B Myakka (F2) eggs in cotton seedlings cut stem assessed as mortality measured after 14 days by stabilization treatment based systemic uptake bioassay.
Test [13] concerns Bemisia tabaci. Nature of the test: Insecticidal activity against field-collected population of Bemisia tabaci (sweet potato whitefly) biotype B Homestead #1 (F2-F3) eggs in cotton seedlings cut stem assessed as mortality measured after 14 days by stabilization treatment based systemic uptake bioassay.

As to `CNC(=O)c1cc(C#N)cc(C)c1NC(=O)c1cc(Br)nn1-c1ncccc1Cl` [CYANTRANILIPROLE], the RatioLC50 was found to be 0.752 in the test on Bemisia tabaci [1], 1.207 in the test with Bemisia tabaci [2] and 1.174 with Bemisia tabaci [3]. The LC50 was 0.049 mgAi/L with Bemisia tabaci [4]; 0.037 mgAi/L in the test with Bemisia tabaci [5]; 0.059 mgAi/L in the test on Bemisia tabaci [6]; 0.058 mgAi/L with Bemisia tabaci [7]; 0.033 mgAi/L with Bemisia tabaci [8]; 0.023 mgAi/L with Bemisia tabaci [9]. Moreover, the LC50 in the test with Bemisia tabaci [10] amounted to 0.034 mgAi/L; with Bemisia tabaci [11], 0.015 mgAi/L; with Bemisia tabaci [12], 0.023 mgAi/L; in the test on Bemisia tabaci [13], 0.013 mgAi/L.
